Experimental data taken from patent publication US9403832B2, “Pyrazolo[1,5-a]pyrimidine-based compounds, compositions comprising them, and methods of their use” (Lexicon Pharmaceuticals, Inc., priority 2012, dated 2016).

The compounds below were run against T1, AAK1 (Homo sapiens, UniProt Q2M2I8) (assay: HEK281 cell-based assay (CBA)). Conditions: HEK293F cells transfected with full length human AAK1 and AP2M1; phospho-mu2 Western blot; 3 hours incubation.
T1 construct: NP_055726.2
Procedure: HEK293F cells were cultured in media containing DMEM (Gibco, cat. #11965), 10% FBS (SAFC Biosciences, cat. #12103C), 1× GPS (glutamine, penicillin and streptomycin). On day one, cells were plated on a 10 cm dish so that they are ˜80% confluent at time of transfection. Roughly 12 million cells were in a 10 cm dish at time of transfection. On day two, each dish was transfected with 48 ug DNA and 144 ul Lipofectamine 2000 (Invitrogen, cat. #11668-019). The DNA was comprised of a mixture (per 10 cm dish) containing 3 ug AAK1/HA/pIRES (full length human, NCBI accession no. NP_055726.2), 45 μg Flag/AP2MI/pcDNA (full length human), and 1.5 ml OPTI-MEM. The Lipofectamine 2000 is made up of a mixture (per 10 cm dish) containing 144 μl Lipofectamine 2000 and 1.5 ml OPTI-MEM. Each mixture was transferred to individual 15 ml tubes and incubated at RT for 5 minutes, and then the two mixes were combined and incubated at RT for 20 minutes.
Growth media was then aspirated from each 10 cm plate and replaced with 10 ml of DMEM+10% FBS (no GPS). Finally, 3 ml DNA/Lipofectamine mix was added to each 10 cm dish and mix gently followed by incubate of plate overnight at 37° C. and 5% CO2.
On day three, compounds were diluted in 100% DMSO at 1000× final concentration, followed by 3-fold serial dilutions for a total of 5 concentrations tested. Four compounds were tested per 10 cm dish. One ul of each compound dilution was then pipetted into a deep-well, 96-well plate, followed by addition of 500 μl DMEM+0.5% FBS into each well for a 2× final concentration of each compound. Cells were resuspended in a 10 cm dish by simple pipetting (HEK293 cells come off the plate that easy at this point) and then transferred to a 50 ml conical tube and pelleted by centrifugation at 1000 rpm for 5 min. Cell pellets were then resuspended in 2.75 ml DMEM+0.5% FBS per 10 cm dish and 100 μl of cell suspension transferred into each well of 96-well TC plate. Finally, 100 μl of 2× compound diluted in DMEM+0.5% FBS was then added into wells containing cell suspension for a 1× final concentration. Plates were then incubated at 37° C. and 5% CO2 for 3 hours followed by transferring of cell suspensions from each well into 12-tube PCR strips. The PCR strips were spun in a tip rack at 1000 rpm for 5 minutes to pellet cells and media was then removed by pipetting without disturbing the cell pellet.
To prepare for Western Blot analysis, cell pellets were resuspend in 40 ul 1× LDS-PAGE sample buffer (Invitrogen, cat.# NP0008)+2× Halt phophatase and protease inhibitor cocktail (Thermo Scientific, cat. #1861284), followed by sonicating each with microtip sonicator set at 5 for 8-10 seconds. Five ul of 10× NuPage Sample Reducing Agent (with 50 mM DTT) was to each sample followed by heat denaturing at 70 C for 10 min on PCR machine. A total of 10 μl per sample was loaded into each lane of a 4-20% Tris-Glycine Criterion 26-well gel (Biorad, cat. #345-0034) for the phospho-mu2 blot and 10 μl per lane in a 4-12% Bis-Tris (+MES buffer) NuPAGE 26-well gel (Invitrogen, cat.# WG1403BX10) for the mu2 blot. For controls, 2 ng of phospho-mu2 or 20 ng mu2/Flag proteins were loaded in the last well of each gel. After SDS-PAGE, samples on each gel were transferred to PVDF membrane using an iBlot and membranes were blocked for one hour in TBST+5% milk, followed by wash 3× for 5-10 min with TBST. Criterion gels were probed with rabbit anti-phospho-mu2 (1:5000; a rabbit polyclonal antibody produced by New England Peptide and affinity purified at Lexicon) in TBST+5% BSA, whereas, NuPAGE gels were probed with mouse anti-Flag (1:500; Sigma, cat.# F1804) in TBST+5% milk, and these primary antibodies were incubated overnight at 4° C. on a rocker.

T1 sequence (Q2M2I8 1-863 isoform Q2M2I8-2): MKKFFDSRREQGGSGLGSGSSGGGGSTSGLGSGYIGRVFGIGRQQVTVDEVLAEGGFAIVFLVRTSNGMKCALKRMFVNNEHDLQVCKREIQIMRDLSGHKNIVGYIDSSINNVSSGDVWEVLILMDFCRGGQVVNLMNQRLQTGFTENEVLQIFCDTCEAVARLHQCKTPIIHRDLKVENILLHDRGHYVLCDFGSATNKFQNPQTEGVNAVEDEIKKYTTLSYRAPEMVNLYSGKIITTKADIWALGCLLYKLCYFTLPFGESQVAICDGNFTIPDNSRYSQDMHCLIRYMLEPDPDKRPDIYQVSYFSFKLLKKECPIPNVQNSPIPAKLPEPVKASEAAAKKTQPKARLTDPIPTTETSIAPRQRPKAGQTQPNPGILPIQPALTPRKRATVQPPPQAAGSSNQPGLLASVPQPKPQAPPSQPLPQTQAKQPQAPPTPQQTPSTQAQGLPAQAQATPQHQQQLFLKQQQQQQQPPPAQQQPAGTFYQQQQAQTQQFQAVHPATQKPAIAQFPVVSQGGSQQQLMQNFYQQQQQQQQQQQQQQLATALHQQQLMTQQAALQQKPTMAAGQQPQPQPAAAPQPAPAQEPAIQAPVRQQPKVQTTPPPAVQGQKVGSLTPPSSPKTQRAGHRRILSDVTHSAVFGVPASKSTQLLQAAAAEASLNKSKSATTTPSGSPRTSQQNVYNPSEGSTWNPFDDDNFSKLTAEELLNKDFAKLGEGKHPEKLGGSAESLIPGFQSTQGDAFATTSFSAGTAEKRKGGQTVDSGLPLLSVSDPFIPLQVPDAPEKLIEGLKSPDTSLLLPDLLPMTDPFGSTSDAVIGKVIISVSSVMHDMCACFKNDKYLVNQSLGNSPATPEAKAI

| IC50 [nM] | SMILES |
| --- | --- |
| ≤ 10 | CC(C)COC(=O)N(C)CCNc1ccn2ncc(-c3ccc(C(N)=O)cc3)c2n1 [isobutyl (2-((3-(4-carbamoylphenyl)pyrazolo[1,5-a]pyrimidin-5-yl)amino)ethyl)(methyl)carbamate] |

Each compound was assayed against T1, AAK1 (assay: P81 filter plate assay). Conditions: full-length human AAK1, Mu2 substrate, 33P-ATP.
Type: biochemical
Procedure: Compounds were serially diluted into a Labcyte LDV plate (Labcyte, cat#LP-0200) using a Mutiprobe (PerkinElmer) and Biomek FX (Beckman Coulter) so that the highest compound concentration was at 96 μM. Compounds were then pinged (75 nL per well) into a Greiner 384-well reaction plate (Greiner, #781076) using an ECHO 550 Liquid Handler (Labcyte). A total of 12 μl reaction buffer (IMAP buffer containing Tween and DTT, from Molecular Devices) was then added to each well of columns 1 and 13 for the negative controls and 12 μl of 2× AAK1 (0.2 nM full-length human protein, NCBI accession no. NP_055726.2) was added to the remaining wells. Enzyme was then pre-incubated with compound for 10 minutes at RT. Reactions were initiated upon Minitrak (PerkinElmer) addition of 12 μl substrate mix containing 2× Mu2 (0.2 μM, full length human protein), 2× cold ATP (2 μM), and 1.3 μCi of hot ^33P-ATP. […] proceeded for one hour at RT. Meanwhile, Millipore 384-well P81 filter plates (Millipore, catalog #MZPHNOW10) were placed on a plate washer (Zoom ZW, from Titertek) and pre-wet with 50 μl 1% phosphoric acid. Kinase reactions were then stopped upon addition of 24 μl of 2% phosphoric acid to each well and the Minitrak was then used to transfer 40 μl from each well into the pre-wet Millipore 384-well P81 filter plates. Reaction mixtures were incubated for 10 minutes at RT in the P81 plates, followed by washing five times with 100 μl/well of 1% phosphoric acid using the Zoom filter washer. The bottom of each filter plate was sealed followed by addition of 20 μl Microscint 40 to each well, sealing the top of the plates with Flashplate cover, and then waiting one hour until reading on the TopCount (PerkinElmer).

| SMILES | IC50 [nM] |
| --- | --- |
| [2H]C1([2H])N(C(=O)OC(C)C)C([2H])([2H])C([2H])([2H])N(c2ccn3ncc(Br)c3n2)C1([2H])[2H] [isopropyl 4-(3-bromopyrazolo[1,5-a]pyrimidin-5-yl)-d8-piperazine-1-carboxylate] | ≤ 100 |
| COc1ncc(C)cc1-c1cnn2ccc(N(C)CCN(C)C(=O)OC(C)C)nc12 [isopropyl (2-((3-(2-methoxy-5-methylpyridin-3-yl)pyrazolo[1,5-a]pyrimidin-5-yl)(methyl)amino)ethyl)(methyl)carbamate] | ≤ 100 |
| COc1nc(C)ccc1-c1cnn2ccc(N(C)CCN(C)C(=O)OC(C)C)nc12 [isopropyl (2-((3-(2-methoxy-6-methylpyridin-3-yl)pyrazolo[1,5-a]pyrimidin-5-yl)(methyl)amino)ethyl)(methyl)carbamate] | ≤ 100 |
| COc1ncccc1-c1cnn2ccc(N(C)CCN(C)C(=O)OC(C)C)nc12 [isopropyl (2-((3-(2-methoxypyridin-3-yl)pyrazolo[1,5-a]pyrimidin-5-yl)(methyl)amino)ethyl)(methyl)carbamate] | ≤ 100 |
| COc1ncccc1-c1cnn2ccc(NCCNC(=O)OC(C)C)nc12 [isopropyl (2-((3-(2-methoxypyridin-3-yl)pyrazolo[1,5-a]pyrimidin-5-yl)amino)ethyl)carbamate] | ≤ 100 |
| COc1ncccc1-c1cnn2ccc(OCCN(C)C(=O)OC(C)C)nc12 [isopropyl (2-((3-(2-methoxypyridin-3-yl)pyrazolo[1,5-a]pyrimidin-5-yl)oxy)ethyl)(methyl)carbamate] | ≤ 100 |
| COc1ncc(F)cc1-c1cnn2ccc(N(C)CCN(C)C(=O)OC(C)C)nc12 [isopropyl (2-((3-(5-fluoro-2-methoxypyridin-3-yl)pyrazolo[1,5-a]pyrimidin-5-yl)(methyl)amino)ethyl)(methyl)carbamate] | ≤ 10 |
| COc1ncc(F)cc1-c1cnn2ccc(N(C)CCCN(C)C(=O)OC(C)C)nc12 [isopropyl (3-((3-(5-fluoro-2-methoxypyridin-3-yl)pyrazolo[1,5-a]pyrimidin-5-yl)(methyl)amino)propyl)(methyl)carbamate] | ≤ 10 |
| [2H]C1([2H])N(C(=O)OC(C)(C)C)C([2H])([2H])C([2H])([2H])N(c2ccn3ncc(Br)c3n2)C1([2H])[2H] [tert-butyl 4-(3-bromopyrazolo[1,5-a]pyrimidin-5-yl)-d8-piperazine-1-carboxylate] | ≤ 100 |
| COc1ncccc1-c1cnn2ccc(OCCN(C)C(=O)OC(C)(C)C)nc12 [tert-butyl (2-((3-(2-methoxypyridin-3-yl)pyrazolo[1,5-a]pyrimidin-5-yl)oxy)ethyl)(methyl)carbamate] | ≤ 10 |

The remaining lines, values ahead:

| IC50 [nM] | SMILES |
| --- | --- |
| ≤ 1000 | COc1cccnc1-c1cnn2ccc(N3CCN(C(=O)OC(C)C)CC3)nc12 [isopropyl 4-(3-(3-methoxypyridin-2-yl)pyrazolo[1,5-a]pyrimidin-5-yl)piperazine-1-carboxylate] |
| ≤ 10 | COc1cnccc1-c1cnn2ccc(N3CCN(C(=O)OC(C)C)CC3)nc12 [isopropyl 4-(3-(3-methoxypyridin-4-yl)pyrazolo[1,5-a]pyrimidin-5-yl)piperazine-1-carboxylate] |
| ≤ 100 | COC(=O)c1ccc(-c2cnn3ccc(N4CCN(C(=O)OC(C)C)CC4)nc23)cc1 [isopropyl 4-(3-(4-(methoxycarbonyl)phenyl)pyrazolo[1,5-a]pyrimidin-5-yl)piperazine-1-carboxylate] |
| ≤ 100 | COc1ncncc1-c1cnn2ccc(N3CCN(C(=O)OC(C)C)CC3)nc12 [isopropyl 4-(3-(4-methoxypyrimidin-5-yl)pyrazolo[1,5-a]pyrimidin-5-yl)piperazine-1-carboxylate] |
| ≤ 10 | COc1ncc(F)cc1-c1cnn2ccc(N3CCN(C(=O)OC(C)C)CC3)nc12 [isopropyl 4-(3-(5-fluoro-2-methoxypyridin-3-yl)pyrazolo[1,5-a]pyrimidin-5-yl)piperazine-1-carboxylate] |
| ≤ 10 | CC(C)OC(=O)N1CCN(c2ccn3ncc(-c4cncc(F)c4)c3n2)CC1 [isopropyl 4-(3-(5-fluoropyridin-3-yl)pyrazolo[1,5-a]pyrimidin-5-yl)piperazine-1-carboxylate] |
| ≤ 100 | CC(C)OC(=O)N1CCN(c2ccn3ncc(-c4ccc(F)nc4)c3n2)CC1 [isopropyl 4-(3-(6-fluoropyridin-3-yl)pyrazolo[1,5-a]pyrimidin-5-yl)piperazine-1-carboxylate] |
| ≤ 100 | CC(C)OC(=O)N1CCN(c2ccn3ncc(-c4cccc5nccn45)c3n2)CC1 [isopropyl 4-(3-(imidazo[1,2-a]pyridin-5-yl)pyrazolo[1,5-a]pyrimidin-5-yl)piperazine-1-carboxylate] |
| ≤ 100 | CC(C)OC(=O)N1CCN(c2ccn3ncc(-c4cccn5ccnc45)c3n2)CC1 [isopropyl 4-(3-(imidazo[1,2-a]pyridin-8-yl)pyrazolo[1,5-a]pyrimidin-5-yl)piperazine-1-carboxylate] |
| ≤ 1000 | CC(C)OC(=O)N1CCN(c2ccn3ncc(-c4ccnnc4)c3n2)CC1 [isopropyl 4-(3-(pyridazin-4-yl)pyrazolo[1,5-a]pyrimidin-5-yl)piperazine-1-carboxylate] |
| ≤ 1000 | CC(C)OC(=O)N1CCN(c2ccn3ncc(C(F)(F)F)c3n2)CC1 [isopropyl 4-(3-(trifluoromethyl)pyrazolo[1,5-a]pyrimidin-5-yl)piperazine-1-carboxylate] |
| ≤ 100 | CC(C)OC(=O)N1CCN(c2ccn3ncc(Cl)c3n2)CC1 [isopropyl 4-(3-chloropyrazolo[1,5-a]pyrimidin-5-yl)piperazine-1-carboxylate] |
| ≤ 100 | CC(C)OC(=O)N1CCN(c2ccn3ncc(I)c3n2)CC1 [isopropyl 4-(3-iodopyrazolo[1,5-a]pyrimidin-5-yl)piperazine-1-carboxylate] |
